Data published in patent US8329904B2, “Azacyclic derivatives” (Hoffmann-La Roche Inc., priority 2009, dated 2012).
pIC50: −log10 of the molar value.

Target: T1, human HSL (Homo sapiens, UniProt Q05469)
T1 construct: overlapping PCR to generate a full length human HSL ORF with a 3′-His6 tag; His6 (C); made in house; host or cells: High 5 insect cells (baculovirus, pFast-BAC)
T1 sequence (Q05469 1-1076): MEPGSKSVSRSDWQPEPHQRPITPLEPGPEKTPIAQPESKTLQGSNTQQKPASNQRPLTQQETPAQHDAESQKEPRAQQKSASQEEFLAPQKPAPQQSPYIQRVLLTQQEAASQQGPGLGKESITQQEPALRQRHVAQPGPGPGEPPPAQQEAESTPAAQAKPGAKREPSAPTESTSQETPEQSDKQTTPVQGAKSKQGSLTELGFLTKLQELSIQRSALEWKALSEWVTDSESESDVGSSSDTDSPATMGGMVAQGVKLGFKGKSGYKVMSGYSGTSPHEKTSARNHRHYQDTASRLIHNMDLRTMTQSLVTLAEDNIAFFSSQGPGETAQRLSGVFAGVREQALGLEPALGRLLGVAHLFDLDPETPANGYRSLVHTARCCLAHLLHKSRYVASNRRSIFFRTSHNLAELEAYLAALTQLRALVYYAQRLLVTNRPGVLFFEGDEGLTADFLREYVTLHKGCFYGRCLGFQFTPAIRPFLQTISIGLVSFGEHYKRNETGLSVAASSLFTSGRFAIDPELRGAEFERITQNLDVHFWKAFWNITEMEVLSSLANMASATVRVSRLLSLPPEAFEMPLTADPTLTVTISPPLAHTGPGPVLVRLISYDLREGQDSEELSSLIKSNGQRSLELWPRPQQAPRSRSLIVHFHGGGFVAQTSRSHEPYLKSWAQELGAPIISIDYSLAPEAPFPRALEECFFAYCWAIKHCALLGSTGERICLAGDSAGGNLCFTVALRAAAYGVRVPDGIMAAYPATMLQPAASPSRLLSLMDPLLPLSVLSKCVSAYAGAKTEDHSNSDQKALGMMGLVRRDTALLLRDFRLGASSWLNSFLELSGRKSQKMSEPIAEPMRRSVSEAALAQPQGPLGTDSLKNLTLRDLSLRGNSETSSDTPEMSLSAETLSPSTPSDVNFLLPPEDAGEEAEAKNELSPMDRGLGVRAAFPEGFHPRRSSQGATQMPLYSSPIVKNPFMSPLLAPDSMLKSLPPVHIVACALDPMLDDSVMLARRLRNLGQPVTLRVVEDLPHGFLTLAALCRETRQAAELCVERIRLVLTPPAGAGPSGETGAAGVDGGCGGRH
Experiment: Human Hormone-Sensitive Lipase (HSL) Enzyme Inhibition Assay
Type: biochemical
Conditions: colorimetric assay, 2,3-dimercapto-1-propanol tributyrate (DMPT) substrate, 37° C. for 20 minutes, absorbance at 405 nm; read-out: HSL hum IC50
Outline: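 Colorimetric thioester hydrolysis: compounds in DMSO series mixed with DMPT (1.5 mM) in MOPS pH 7.2 with BSA, then baculovirus-expressed His6-tagged full-length human HSL added, 37° C, 20 min. DTNB plus detergents added, 15 min room temperature, absorbance at 405 nm.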

| SMILES | pIC50 |
| --- | --- |
| O=C1N(c2ccc(OC(F)(F)F)cc2)CCC12CCN(S(=O)(=O)c1ccc(C(F)(F)F)cc1Cl)CC2 [Example 70, 8-(2-Chloro-4-trifluoromethyl-benzenesulfonyl)-2-(4-trifluoromethoxy-phenyl)-2,8-diaza-spiro[4.5]decan-1-one] | 6.85 |
| O=C1N(c2ccc(C3CC3)cc2)CCC12CCN(S(=O)(=O)c1ccccc1C(F)(F)F)CC2 [Example 71, 2-(4-Cyclopropyl-phenyl)-8-(2-trifluoromethyl-benzenesulfonyl)-2,8-diaza-spiro[4.5]decan-1-one] | 7.10 |
| O=C1N(c2ccc(C3CC3)cc2)CCC12CCN(S(=O)(=O)c1ccc(F)cc1C(F)(F)F)CC2 [Example 72, 2-(4-Cyclopropyl-phenyl)-8-(4-fluoro-2-trifluoromethyl-benzenesulfonyl)-2,8-diaza-spiro[4.5]decan-1-one] | 6.96 |
| CCc1ccc(N2CCC3(CCN(S(=O)(=O)c4ccccc4I)CC3)C2=O)cc1 [Example 74, 2-(4-Ethyl-phenyl)-8-(2-iodo-benzenesulfonyl)-2,8-diaza-spiro[4.5]decan-1-one] | 6.70 |
| O=C1N(c2ccc(OC(F)(F)F)cc2)CCC12CCN(S(=O)(=O)c1ccc(F)cc1C(F)(F)F)CC2 [Example 76, 8-(4-Fluoro-2-trifluoromethyl-benzenesulfonyl)-2-(4-trifluoromethoxy-phenyl)-2,8-diaza-spiro[4.5]decan-1-one] | 6.72 |
| O=C1N(c2ccc(C3CC3)cc2)CCC12CCN(S(=O)(=O)c1ccc(C(F)(F)F)cc1Cl)CC2 [Example 77, 8-(2-Chloro-4-trifluoromethyl-benzenesulfonyl)-2-(4-cyclopropyl-phenyl)-2,8-diaza-spiro[4.5]decan-1-one] | 6.74 |
| CS(=O)(=O)Oc1ccc(N2CCC3(CCN(S(=O)(=O)c4ccc(F)cc4C(F)(F)F)CC3)C2=O)cc1 [Example 83, Methanesulfonic acid 4-[8-(4-fluoro-2-trifluoromethyl-benzenesulfonyl)-1-oxo-2,8-diaza-spiro[4.5]dec-2-yl]-phenyl ester] | 7.40 |
| CCCCOc1ccc(N2CCC3(CCN(S(=O)(=O)CC(C)C)CC3)C2=O)cc1 [Example 84, 2-(4-Butoxy-phenyl)-8-(2-methyl-propane-1-sulfonyl)-2,8-diaza-spiro[4.5]decan-1-one] | 6.70 |
| CCC(C)Oc1ccc(N2CCC3(CCN(S(=O)(=O)CC(C)C)CC3)C2=O)cc1 (stereo not shown) [Example 85, 2-(4-sec-Butoxy-phenyl)-8-(2-methyl-propane-1-sulfonyl)-2,8-diaza-spiro[4.5]decan-1-one] | 7.00 |
| CC(C)Oc1ccc(N2CCC3(CCN(S(=O)(=O)c4ccccc4OC(F)(F)F)CC3)C2=O)cc1 [Example 87, 2-(4-Isopropoxy-phenyl)-8-(2-trifluoromethoxy-benzenesulfonyl)-2,8-diaza-spiro[4.5]decan-1-one] | 7.70 |
| CCCCOc1ccc(N2CCC3(CCN(S(=O)(=O)c4ccccc4OC(F)(F)F)CC3)C2=O)cc1 [Example 88, 2-(4-Butoxy-phenyl)-8-(2-trifluoromethoxy-benzenesulfonyl)-2,8-diaza-spiro[4.5]decan-1-one] | 7.30 |
| CC(Oc1ccc(N2CCC3(CCN(S(=O)(=O)c4ccccc4OC(F)(F)F)CC3)C2=O)cn1)C(F)(F)F (stereo not shown) [Example 89, 8-(2-Trifluoromethoxy-benzenesulfonyl)-2-[6-(2,2,2-trifluoro-1-methyl-ethoxy)-pyridin-3-yl]-2,8-diaza-spiro[4.5]decan-1-one] | 7.52 |
| CCC(C)Oc1ccc(N2CCC3(CCN(S(=O)(=O)c4ccccc4OC(F)(F)F)CC3)C2=O)cc1 (stereo not shown) [Example 90, 2-(4-sec-Butoxy-phenyl)-8-(2-trifluoromethoxy-benzenesulfonyl)-2,8-diaza-spiro[4.5]decan-1-one] | 7.70 |
| C=Cc1ccc(N2CCC3(CCN(S(=O)(=O)c4ccccc4Cl)CC3)C2=O)cc1 [Example 91, 8-(2-Chloro-benzenesulfonyl)-2-(4-vinyl-phenyl)-2,8-diaza-spiro[4.5]decan-1-one] | 7.40 |
| CC(C)CS(=O)(=O)N1CCC2(CCN(c3ccc(OCC4CC4)cc3)C2=O)CC1 [Example 94, 2-(4-Cyclopropylmethoxy-phenyl)-8-(2-methyl-propane-1-sulfonyl)-2,8-diaza-spiro[4.5]decan-1-one] | 6.57 |

The remaining compounds from weak to strong by pIC50, led by results:

| pIC50 | SMILES |
| --- | --- |
| 6.44 | CC(C)Oc1ccc(N2CCC3(CCN(S(=O)(=O)C4CC4)CC3)C2=O)cc1 [Example 95, 8-Cyclopropanesulfonyl-2-(4-isopropoxy-phenyl)-2,8-diaza-spiro[4.5]decan-1-one] |
| 6.51 | CCc1ccc(N2CCC3(CCN(S(=O)(=O)c4ccc(C(F)(F)F)cc4Cl)CC3)C2=O)cc1 [Example 69, 8-(2-Chloro-4-trifluoromethyl-benzenesulfonyl)-2-(4-ethyl-phenyl)-2,8-diaza-spiro[4.5]decan-1-one] |
| 6.59 | CCc1ccc(N2CCC3(CCN(S(=O)(=O)c4ccc(F)cc4C(F)(F)F)CC3)C2=O)cc1 [Example 75, 2-(4-Ethyl-phenyl)-8-(4-fluoro-2-trifluoromethyl-benzenesulfonyl)-2,8-diaza-spiro[4.5]decan-1-one] |
| 6.77 | CC(C)Oc1ccc(N2CCC3(CCN(S(=O)(=O)CC4CCC4)CC3)C2=O)cc1 [Example 92, 8-Cyclobutylmethanesulfonyl-2-(4-isopropoxy-phenyl)-2,8-diaza-spiro[4.5]decan-1-one] |
| 6.96 | O=C1N(c2ccc(C3CC3)cc2)CCC12CCN(S(=O)(=O)c1ccccc1OC(F)(F)F)CC2 [Example 82, 2-(4-Cyclopropyl-phenyl)-8-(2-trifluoromethoxy-benzenesulfonyl)-2,8-diaza-spiro[4.5]decan-1-one] |
| 7.05 | O=C1N(c2ccc(CC(F)(F)F)cc2)CCC12CCN(S(=O)(=O)c1ccc(F)cc1C(F)(F)F)CC2 [Example 81, 8-(4-Fluoro-2-trifluoromethyl-benzenesulfonyl)-2-[4-(2,2,2-trifluoro-ethyl)-phenyl]-2,8-diaza-spiro[4.5]decan-1-one] |
| 7.05 | O=C1N(c2ccc(OC(F)(F)F)cc2)CCC12CCN(S(=O)(=O)CC1CCC1)CC2 [Example 93, 8-Cyclobutylmethanesulfonyl-2-(4-trifluoromethoxy-phenyl)-2,8-diaza-spiro[4.5]decan-1-one] |
| 7.10 | O=C1N(c2ccc(CC(F)(F)F)cc2)CCC12CCN(S(=O)(=O)c1ccccc1C(F)(F)F)CC2 [Example 73, 2-[4-(2,2,2-Trifluoro-ethyl)-phenyl]-8-(2-trifluoromethyl-benzenesulfonyl)-2,8-diaza-spiro[4.5]decan-1-one] |
| 7.10 | CC(C)CS(=O)(=O)N1CCC2(CCN(c3ccc(OC(C)C(F)(F)F)cc3)C2=O)CC1 (stereo not shown) [Example 86, 8-(2-Methyl-propane-1-sulfonyl)-2-[4-(2,2,2-trifluoro-1-methyl-ethoxy)-phenyl]-2,8-diaza-spiro[4.5]decan-1-one] |
| 7.30 | O=C1N(c2ccc(OS(=O)(=O)C3CC3)cc2)CCC12CCN(S(=O)(=O)c1ccccc1OC(F)(F)F)CC2 [Example 80, Cyclopropanesulfonic acid 4-[1-oxo-8-(2-trifluoromethoxy-benzenesulfonyl)-2,8-diaza-spiro[4.5]dec-2-yl]-phenyl ester] |
| 7.40 | O=C1N(c2ccc(OC(F)(F)F)cc2)CCC12CCN(S(=O)(=O)c1ccccc1C(F)(F)F)CC2 [Example 68, 2-(4-Trifluoromethoxy-phenyl)-8-(2-trifluoromethyl-benzenesulfonyl)-2,8-diaza-spiro[4.5]decan-1-one] |
| 7.40 | O=C1N(c2ccc(OCC(F)(F)F)cc2)CCC12CCN(S(=O)(=O)c1ccccc1OC(F)(F)F)CC2 [Example 79, 2-[4-(2,2,2-Trifluoro-ethoxy)-phenyl]-8-(2-trifluoromethoxy-benzenesulfonyl)-2,8-diaza-spiro[4.5]decan-1-one] |
| 7.52 | O=C1N(c2ccc(CC(F)(F)F)cc2)CCC12CCN(S(=O)(=O)c1ccccc1OC(F)(F)F)CC2 [Example 78, 2-[4-(2,2,2-Trifluoro-ethyl)-phenyl]-8-(2-trifluoromethoxy-benzenesulfonyl)-2,8-diaza-spiro[4.5]decan-1-one] |
